Assay [1] relates to Mus musculus. The assay is described as follows: Induction of psychedelics activity in mouse assessed as head-twitch response at upto 10 mg/kg, ip measured for 30 min. The class given is functional. The settings on record: 0.5 h.
For assay [2], the system named is Mus musculus. The experiment in a line: Induction of psychedelics activity in C57BL/6J mouse assessed as head-twitch response at upto 10 mg/kg, ip measured for 30 min. Type of assay: functional. The settings on record: 0.5 h.

For orientation: ED50 means the dose at which the effect has come halfway, by size or by number of responders.

Each structure is given as a SMILES string.

For the compound `Cc1ccc2[nH]cc(CCN(C)C)c2c1OP(=O)(O)O`, the ED50 in assay [1] was found to be 1.23 mg/kg.
For the compound `CN(C)CCc1c[nH]c2ccccc12` [N,N-DIMETHYLTRYPTAMINE], in assay [2], the ED50 turned out to be 5.05 µmol/kg.

(Values after ChEMBL document CHEMBL5226298, “Chemoenzymatic Synthesis of 5-Methylpsilocybin: A Tryptamine with Potential Psychedelic Activity” (2021).)
